Blank lines part the entries; values can stand above or below the molecule they belong to.
What was measured:
LmDHFR = LmDHFR (Leishmania major, UniProt P07382); experiment: biochemical
TbDHFR = TbDHFR (Trypanosoma brucei brucei, UniProt Q27783); experiment: biochemical
[1] = molecular target: Leishmania major PTR1 (LmPTR1); conditions: read-out: Ki LmPTR1; cited from earlier work
[2] = test system: T. brucei brucei Lister 427 bloodstream forms; experiment: Efficacy against T. brucei bloodstream forms, resazurin-based assay; type: cell-based, Trypanosoma brucei brucei; conditions: 72 h; for % inhibition T. brucei at 10 µM ± SD: 10 µM compound, T. brucei brucei Lister 427 bloodstream form; for inhibition at 10 µM: Trypanosoma brucei, read-out: % inhibition T. brucei at 10 µM ± SD
[3] = Cytotoxicity on THP-1-derived macrophages, colorimetric MTT assay; type: cell-based; conditions: human
L. major DHFR (LmDHFR) = conditions: read-out: Ki LmDHFR; cited from earlier work
human DHFR (hDHFR) = conditions: read-out: Ki hDHFR; cited from earlier work
hDHFR = molecular target: T1, hDHFR (Homo sapiens, UniProt P00374); experiment: biochemical; conditions: for hDHFR IC50: off-target
T1 sequence (P00374 1-187): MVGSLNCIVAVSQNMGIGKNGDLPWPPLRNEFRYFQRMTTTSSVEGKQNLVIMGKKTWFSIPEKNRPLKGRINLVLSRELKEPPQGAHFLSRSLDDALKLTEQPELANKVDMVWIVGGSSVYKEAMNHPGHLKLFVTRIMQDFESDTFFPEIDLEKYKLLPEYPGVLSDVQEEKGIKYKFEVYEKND

LmPTR1 = molecular target: T2, LmPTR1 (Leishmania major, UniProt Q01782); experiment: biochemical
T2 sequence (Q01782 1-288): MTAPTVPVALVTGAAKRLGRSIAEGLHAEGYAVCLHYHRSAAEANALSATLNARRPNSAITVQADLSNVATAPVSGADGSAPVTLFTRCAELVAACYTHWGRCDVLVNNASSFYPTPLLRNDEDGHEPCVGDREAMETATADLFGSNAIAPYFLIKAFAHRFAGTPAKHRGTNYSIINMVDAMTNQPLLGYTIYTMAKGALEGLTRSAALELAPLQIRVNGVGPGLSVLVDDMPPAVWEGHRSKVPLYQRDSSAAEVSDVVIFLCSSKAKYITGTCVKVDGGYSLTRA

hTS = hTS (Homo sapiens, UniProt P04818); experiment: biochemical
Chain of hTS (P04818 whole entry): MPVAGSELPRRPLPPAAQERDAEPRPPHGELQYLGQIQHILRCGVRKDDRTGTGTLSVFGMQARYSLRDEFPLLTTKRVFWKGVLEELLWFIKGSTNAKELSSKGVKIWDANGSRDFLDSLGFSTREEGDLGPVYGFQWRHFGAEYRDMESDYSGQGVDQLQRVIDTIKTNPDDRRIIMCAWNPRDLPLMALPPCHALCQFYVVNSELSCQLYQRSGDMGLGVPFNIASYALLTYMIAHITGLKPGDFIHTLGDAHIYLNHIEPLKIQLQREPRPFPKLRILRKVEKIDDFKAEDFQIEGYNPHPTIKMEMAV

Chain of TbDHFR (Q27783 whole entry): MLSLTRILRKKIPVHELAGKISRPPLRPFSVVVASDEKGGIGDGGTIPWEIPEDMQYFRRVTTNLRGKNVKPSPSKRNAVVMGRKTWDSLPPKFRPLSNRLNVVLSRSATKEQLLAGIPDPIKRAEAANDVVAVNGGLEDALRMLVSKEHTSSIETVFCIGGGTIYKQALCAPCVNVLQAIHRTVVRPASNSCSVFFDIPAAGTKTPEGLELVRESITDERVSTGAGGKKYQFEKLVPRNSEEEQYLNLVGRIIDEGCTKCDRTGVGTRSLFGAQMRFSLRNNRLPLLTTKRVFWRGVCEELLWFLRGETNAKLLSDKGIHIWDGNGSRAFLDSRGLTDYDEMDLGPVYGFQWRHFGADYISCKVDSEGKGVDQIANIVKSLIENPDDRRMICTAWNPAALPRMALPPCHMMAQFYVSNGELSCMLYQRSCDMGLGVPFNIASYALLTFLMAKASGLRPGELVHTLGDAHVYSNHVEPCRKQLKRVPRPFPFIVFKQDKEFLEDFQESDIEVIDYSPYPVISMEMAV
Chain of LmDHFR (P07382 whole entry): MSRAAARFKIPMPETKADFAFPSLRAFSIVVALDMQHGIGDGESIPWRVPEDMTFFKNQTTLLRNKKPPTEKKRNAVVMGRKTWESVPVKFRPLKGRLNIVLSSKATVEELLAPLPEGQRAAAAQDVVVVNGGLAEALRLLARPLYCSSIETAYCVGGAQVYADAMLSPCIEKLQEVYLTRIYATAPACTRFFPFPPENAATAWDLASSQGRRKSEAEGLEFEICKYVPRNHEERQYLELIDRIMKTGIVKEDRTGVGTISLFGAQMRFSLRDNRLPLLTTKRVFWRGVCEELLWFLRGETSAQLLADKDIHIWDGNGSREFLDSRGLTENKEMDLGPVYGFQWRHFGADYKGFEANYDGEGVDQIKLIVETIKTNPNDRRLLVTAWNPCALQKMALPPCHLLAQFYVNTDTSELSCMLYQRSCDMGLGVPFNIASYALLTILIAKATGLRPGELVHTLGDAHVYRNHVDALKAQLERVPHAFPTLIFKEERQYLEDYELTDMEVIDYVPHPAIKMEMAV

- IC50 (LmDHFR): 0.1 µM
SMILES: CCOC(=O)C1CCN(C(=O)c2ccc(N(C)Cc3cnc4nc(N)nc(N)c4n3)cc2)CC1 [Compound 4a]

SMILES: COC(=O)C1CCN(C(=O)c2ccc(N(C)Cc3cnc4nc(N)nc(N)c4n3)cc2)CC1 [Compound 1b, methyl-1-(4-(((2,4-diaminopteridin-6-yl)methyl)(methyl)amino)benzoyl)piperidine-4-carboxylate, reference compound]
- IC50 (TbDHFR): 0.3 µM
- IC50 (LmDHFR): 0.3 µM
- Ki [1]: 0.04 µM

SMILES: COc1cc(Oc2ccc(CNCc3cnc4nc(N)nc(N)c4n3)cc2)cc(OC)c1OC [Compound 4j]
- % inhibition T. brucei at 10 µM ± SD [2]: inactive

- TbDHFR IC50 (TbDHFR): do not show inhibitory activity
- LmDHFR IC50 (LmDHFR): do not show inhibitory activity
SMILES: Nc1nc(N)c2nc(C(=O)NCc3cccc(C(F)(F)F)c3)cnc2n1 [Compound 3e]

SMILES: COc1ccc(Oc2ccc(CN(C)Cc3cnc4nc(N)nc(N)c4n3)cc2)cc1 [Compound 5f]
- CC50 [3]: 12.5 to 25 µM

- IC50 (LmDHFR): 0.2 µM
SMILES: CCOC(=O)C1CCN(C(=O)c2ccc(N(CC)Cc3cnc4nc(N)nc(N)c4n3)cc2)CC1 [Compound 5c]

SMILES: COC(=O)C1CCN(C(=O)c2ccc(NCc3cnc4nc(N)nc(N)c4n3)cc2)CC1 [Compound 1c, methyl-1-(4-(((2,4-diaminopteridin-6-yl)methyl)amino)benzoyl)piperidine-4-carboxylate]
- Ki [1]: 0.1 µM
- Ki (L. major DHFR (LmDHFR)): 4 µM
- Ki (human DHFR (hDHFR)): 10 µM

SMILES: Nc1nc(N)c2nc(CNCc3ccc(Oc4ccccc4)cc3)cnc2n1 [Compound 4h]
- % inhibition T. brucei at 10 µM ± SD [2]: inactive

- TbDHFR IC50 (TbDHFR): inactive
- LmDHFR IC50 (LmDHFR): inactive
- hDHFR IC50 (hDHFR): inactive
SMILES: COc1ccc(Oc2ccc(CNCc3cnc4nc(N)nc(N)c4n3)cc2)cc1 [Compound 4i]

- TbDHFR IC50 (TbDHFR): do not show inhibitory activity
- LmDHFR IC50 (LmDHFR): do not show inhibitory activity
SMILES: Nc1nc(N)c2nc(C(=O)NCc3ccccc3)cnc2n1 [Compound 3d]

- IC50 (LmPTR1): 0.1 µM
SMILES: CN(Cc1cnc2nc(N)nc(N)c2n1)c1ccc(C(=O)N2CCCCC2)cc1 [Compound 4c]

- IC50 (TbDHFR): ~1 µM
SMILES: COC(=O)C1CCN(C(=O)c2ccc(N(Cc3ccccc3)Cc3cnc4nc(N)nc(N)c4n3)cc2)CC1 [Compound 2c]
- inhibition at 10 µM [2]: 75%

SMILES: COc1ccc(Oc2ccc(CN(Cc3ccccc3)Cc3cnc4nc(N)nc(N)c4n3)cc2)cc1 [Compound 5e]
- CC50 [3]: 12.5 to 25 µM

SMILES: Nc1nc(N)c2nc(CNc3ccc(C(=O)NCCc4ccccc4)cc3)cnc2n1 [Compound 4e]
- inhibition at 10 µM [2]: 40%

- IC50 (TbDHFR): 0.5 µM
- IC50 (hDHFR): 4 µM
SMILES: Nc1nc(N)c2nc(CNc3cccc4ccccc34)cnc2n1 [Compound 3c]

- hDHFR IC50 (hDHFR): inactive
- IC50 (hTS): 29 µM
SMILES: NC(=O)C1CCCN1C(=O)Cc1ccc(N(CCCO)Cc2cnc3nc(N)nc(N)c3n2)cc1 (centres unmarked) [Compound 5b]

SMILES: CCN(Cc1cnc2nc(N)nc(N)c2n1)c1ccc(C(=O)c2ccccc2)cc1 [Compound 5d]
- CC50 [3]: 25 to 50 µM

SMILES: COc1ccc(CNC(=O)c2ccc(CNCc3cnc4nc(N)nc(N)c4n3)cc2)cc1 [Compound 4f]
- % inhibition T. brucei at 10 µM ± SD [2]: inactive
